Patent US20100099613A1, “PEPTIDES FOR INDUCING A CTL AND/OR HTL RESPONSE TO HEPATITIS C VIRUS” (GENIMMUNE, priority 2004, published 2010)
Where a SMILES comes first, the peptide text is derived from it.

Key:
Balb/c (H2^bxd) mice = assay: Activity of HTL epitopes, ELISPOT of CD4+ cells, pooled samples; type: in vivo, mouse; conditions: Table 27, 2 experiments
Protocol: (§1) The experiments to test the immunogenicity of HLA-DR peptides differs slightly from example 6 in that complete Freund's is used as the adjuvant. Peptides are tested in either DRB1*0401-Tg mice or surrogate mice such as Balb/c and CBA. In this particular example, HLA-restricted peptide responses are analyzed in pooled samples.

[1] = tested on: DRB1*0401-Tg mice (DR4 Tg); assay: as above; type: in vivo, mouse; conditions: Table 26, 2 experiments
Protocol: as §1

Structure (SMILES) | Immunized SFC/10^6 ± St Error (Balb/c (H2^bxd) mice) [SFC/10^6] | Immunized SFC/10^6 ± St Error [1] [SFC/10^6]
CC[C@H](C)[C@H](NC(=O)CNC(=O)[C@@H](NC(=O)[C@H](C)N)C(C)C)C(=O)N[C@@H](Cc1ccccc1)C(=O)N[C@@H](CCCNC(=N)N)C(=O)N[C@@H](C)C(=O)N[C@@H](C)C(=O)N[C@H](C(=O)N[C@@H](CS)C(=O)N[C@H](C(=O)N[C@@H](CCCNC(=N)N)C(=O)NCC(=O)N[C@H](C(=O)N[C@@H](C)C(=O)O)C(C)C)[C@@H](C)O)C(C)C | 1330.4 ± 111.9 | 
CC(C)C[C@H](NC(=O)[C@@H](NC(=O)[C@@H](NC(=O)[C@@H](N)CC(C)C)C(C)C)C(C)C)C(=O)N[C@@H](C)C(=O)N[C@H](C(=O)N[C@@H](C)C(=O)N[C@H](C(=O)N1CCC[C@H]1C(=O)N1CCC[C@H]1C(=O)NCC(=O)N[C@@H](CO)C(=O)N[C@H](C(=O)N[C@H](C(=O)N[C@H](C(=O)O)C(C)C)[C@@H](C)O)C(C)C)[C@@H](C)O)[C@@H](C)O (H-LVVLATATPPGSVTV-OH; N-terminus and C-terminus assumed) |  | 111.7 ± 42.3
